# Measured values taken from US10005741B2, “Therapeutic compounds” (ARIZONA BOARD OF REGENTS ON BEHALF OF ARIZONA STATE …, priority 2014, dated 2018).
# pEC50: −log10 of the molar value.
# Molecular target: T1, human RXR (Homo sapiens, UniProt P19793)
# T1 construct: expressed in transfected cells; host or cells: HCT-116 cells
# T1 sequence (P19793 1-462) 1: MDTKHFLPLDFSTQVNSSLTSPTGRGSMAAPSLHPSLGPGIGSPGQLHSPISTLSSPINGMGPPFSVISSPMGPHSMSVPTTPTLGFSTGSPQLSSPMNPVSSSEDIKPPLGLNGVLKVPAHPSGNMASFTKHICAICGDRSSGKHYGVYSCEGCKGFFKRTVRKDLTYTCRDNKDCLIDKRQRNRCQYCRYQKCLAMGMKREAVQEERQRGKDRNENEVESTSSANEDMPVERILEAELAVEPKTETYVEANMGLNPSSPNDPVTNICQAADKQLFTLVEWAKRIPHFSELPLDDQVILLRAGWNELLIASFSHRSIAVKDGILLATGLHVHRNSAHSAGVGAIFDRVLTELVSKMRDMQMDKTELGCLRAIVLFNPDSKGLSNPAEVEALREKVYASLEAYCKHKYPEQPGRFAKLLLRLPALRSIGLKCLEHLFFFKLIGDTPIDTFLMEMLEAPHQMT
# T1 sequence (P19793 1-462) 2: T1 sequence (P19793 1-462) 1
# Experiment: Test A: RXR mammalian two-hybrid luciferase assay in transfected HCT-116 cells
# Format: cell-based
# Conditions: RXR mammalian two-hybrid system, luciferase reporter, 24 hours treatment, dose-response 1x10^-9 to 0.3x10^-5 M
# Description: HCT-116 cells were plated overnight at 80,000 cells/well in a 24 well plate and maintained as described above. The cells were co-transfected using a human RXR binding domain (BD) vector, a human RXR activation domain (AD) vector, a luciferase reporter gene containing BD-binding sites and renilla control plasmid. Transfection was achieved via 2 μL/well of Express-IN transfection reagent which was allowed to incubate for 24 hours with the cells. […] The amount of rexinoid activity at each concentration was measured using the same luciferase assay described above, and EC50 values were derived from dose-response curves of ligand concentration versus normalized luciferase activity.
row,Structure (SMILES),pEC50
1,Cc1cc2c(cc1-n1c(C(F)(F)F)nc3cc(C(=O)O)ccc31)C(C)(C)CCC2(C)C [Compound A48],7.70
2,Cc1cnc(/C=C/C(=O)O)cc1-c1cc2c(cc1C)C(C)(C)CCC2(C)C [Compound A42],8.43
3,"Cc1cc2c(cc1-c1nc(/C=C/C(=O)O)ccc1C)C(C)(C)CCC2(C)C [Compound A46, (E)-3-(5-methyl-6-(3,5,5,8,8-pentamethyl-5,6,7,8-tetrahydronaphthalen-2-yl)pyridin-2-yl)acrylic acid]",6.52
4,"Cc1cc2c(cc1-c1cncc(/C=C/C(=O)O)c1)C(C)(C)CCC2(C)C [Compound A45, (E)-3-(5-(3,5,5,8,8-pentamethyl-5,6,7,8-tetrahydronaphthalen-2-yl)pyridin-3-yl)acrylic acid]",6.15

# System: not given
# Experiment: not given
# Conditions: not given
row,Structure (SMILES),melting point
1,"CCN(c1ccc(C(=O)O)c(F)c1)c1cc2c(cc1C)C(C)(C)CCC2(C)C [Compound A60, 4-(ethyl(3,5,5,8,8-pentamethyl-5,6,7,8-tetrahydronaphthalen-2-yl)amino)-2-fluorobenzoic acid]",241.4 to 243.8 °C
2,"CCN(c1ccc(C(=O)O)cc1)c1cc2c(cc1C)C(C)(C)CCC2(C)C [Compound A61, 4-(ethyl(3,5,5,8,8-pentamethyl-5,6,7,8-tetrahydronaphthalen-2-yl)amino)benzoic acid]",252.4 to 256.8 °C
3,"CCN(c1cnc(C(=O)O)cn1)c1cc2c(cc1C)C(C)(C)CCC2(C)C [Compound A59, 5-(ethyl(3,5,5,8,8-pentamethyl-5,6,7,8-tetrahydronaphthalen-2-yl)amino)pyrazine-2-carboxylic acid]",203.6 to 205.1 °C
4,"CCN(c1ccc(C(=O)O)c(F)c1)c1ccc2c(c1)C(C)(C)CCC2(C)C [Compound A62, 4-(ethyl(5,5,8,8-tetramethyl-5,6,7,8-tetrahydronaphthalen-2-yl)amino)-2-fluorobenzoic acid]",252.4 to 256.8 °C
5,"CCN(c1ccc2c(c1)C(C)(C)CCC2(C)C)c1cnc(C(=O)O)cn1 [Compound A58, 5-(ethyl(5,5,8,8-tetramethyl-5,6,7,8-tetrahydronaphthalen-2-yl)amino)pyrazine-2-carboxylic acid]",213.1 to 214.4 °C
6,"CCN(c1ccc(C(=O)O)cc1)c1ccc2c(c1)C(C)(C)CCC2(C)C [Compound A63, 4-(ethyl(5,5,8,8-tetramethyl-5,6,7,8-tetrahydronaphthalen-2-yl)amino)benzoic acid]",247.8 to 250.6 °C
7,"CCN(c1ncc(C(=O)O)cn1)c1cc2c(cc1C)C(C)(C)CCC2(C)C [Compound A57, 2-(ethyl(3,5,5,8,8-pentamethyl-5,6,7,8-tetrahydronaphthalen-2-yl)amino)pyrimidine-5-carboxylic acid]",231.9 to 233.1 °C
